Earlier results in article PMC12019481 (Nature Communications, 2025).

How the values were obtained:
GAT1 = GAT1 (Homo sapiens, UniProt P30531)
Sequence of GAT1 (P30531 whole entry): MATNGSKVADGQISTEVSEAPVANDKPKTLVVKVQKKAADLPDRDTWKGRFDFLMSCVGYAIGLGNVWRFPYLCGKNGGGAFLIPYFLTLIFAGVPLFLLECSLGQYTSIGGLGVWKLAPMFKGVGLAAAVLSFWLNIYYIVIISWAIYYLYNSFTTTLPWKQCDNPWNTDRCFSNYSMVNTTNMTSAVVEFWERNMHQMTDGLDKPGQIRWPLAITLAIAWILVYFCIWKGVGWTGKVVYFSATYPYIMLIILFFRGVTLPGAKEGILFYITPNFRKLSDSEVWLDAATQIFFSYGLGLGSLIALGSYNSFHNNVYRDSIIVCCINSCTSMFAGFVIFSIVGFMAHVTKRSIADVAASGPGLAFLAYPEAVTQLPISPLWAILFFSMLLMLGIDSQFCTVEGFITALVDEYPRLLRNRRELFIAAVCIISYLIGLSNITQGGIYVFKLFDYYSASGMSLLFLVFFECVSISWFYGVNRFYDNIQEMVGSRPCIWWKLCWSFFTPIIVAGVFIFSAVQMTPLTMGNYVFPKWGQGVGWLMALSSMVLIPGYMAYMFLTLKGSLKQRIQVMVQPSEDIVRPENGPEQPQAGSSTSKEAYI

Compound | selectivity for GAT3 (GAT3) | selectivity for GAT1 (GAT1)
5-(2-Thienyl)Isatin | ~ 167 fold | –
Cc1ccsc1C(=CCCN1CCC[C@@H](C(=O)O)C1)c1sccc1C [tiagabine] | – | 10,000–20,000 fold
